Patent US11286281B2, “Homodetic cyclic peptides targeting alpha-4-beta-7 integrin” (priority 2017, dated 2022)
Numbered stars: 1 amine (or outer) side, 2 acyl side, 3 side chain; on linkers, the order of the positions; unused ones are H or OH. Square brackets hold non-standard residues; d marks the D form. Peptide text beside a SMILES is read from it. X1 = O=C(c1ccc(-c2ccc(N3CCNCC3)cc2)c(CN[*:1])c1)[*:2]

Target: T1, integrin α4β7 (Mus musculus, UniProt P26011+Q00651)
T1 construct: host or cells: TK-1 mouse T-cell lymphoma cells
T1 sequence (Q00651 41-1039): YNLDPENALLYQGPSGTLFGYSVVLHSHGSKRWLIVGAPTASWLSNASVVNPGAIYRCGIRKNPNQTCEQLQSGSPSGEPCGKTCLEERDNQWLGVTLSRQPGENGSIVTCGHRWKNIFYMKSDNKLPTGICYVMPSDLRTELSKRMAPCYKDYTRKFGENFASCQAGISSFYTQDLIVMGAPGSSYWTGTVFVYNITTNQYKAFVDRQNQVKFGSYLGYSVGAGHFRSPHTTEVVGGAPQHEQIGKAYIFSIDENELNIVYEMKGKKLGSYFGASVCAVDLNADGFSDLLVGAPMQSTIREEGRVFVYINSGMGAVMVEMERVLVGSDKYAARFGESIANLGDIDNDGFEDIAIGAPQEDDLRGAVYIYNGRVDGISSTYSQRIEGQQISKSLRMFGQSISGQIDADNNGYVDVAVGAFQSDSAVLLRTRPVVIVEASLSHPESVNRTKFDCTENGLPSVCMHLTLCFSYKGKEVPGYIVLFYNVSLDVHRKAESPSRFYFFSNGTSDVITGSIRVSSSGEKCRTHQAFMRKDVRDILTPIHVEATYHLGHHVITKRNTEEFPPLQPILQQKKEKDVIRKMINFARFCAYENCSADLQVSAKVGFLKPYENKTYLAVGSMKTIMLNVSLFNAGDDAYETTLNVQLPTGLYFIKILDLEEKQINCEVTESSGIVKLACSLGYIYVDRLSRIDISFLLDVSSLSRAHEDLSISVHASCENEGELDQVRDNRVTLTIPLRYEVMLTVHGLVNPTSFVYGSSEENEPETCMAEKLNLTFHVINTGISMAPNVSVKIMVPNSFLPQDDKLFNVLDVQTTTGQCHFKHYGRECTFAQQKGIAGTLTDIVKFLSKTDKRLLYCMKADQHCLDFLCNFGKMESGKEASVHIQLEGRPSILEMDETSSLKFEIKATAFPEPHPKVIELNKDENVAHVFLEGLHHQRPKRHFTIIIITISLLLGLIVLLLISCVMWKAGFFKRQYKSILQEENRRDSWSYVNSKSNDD
T1 sequence (P26011 20-806): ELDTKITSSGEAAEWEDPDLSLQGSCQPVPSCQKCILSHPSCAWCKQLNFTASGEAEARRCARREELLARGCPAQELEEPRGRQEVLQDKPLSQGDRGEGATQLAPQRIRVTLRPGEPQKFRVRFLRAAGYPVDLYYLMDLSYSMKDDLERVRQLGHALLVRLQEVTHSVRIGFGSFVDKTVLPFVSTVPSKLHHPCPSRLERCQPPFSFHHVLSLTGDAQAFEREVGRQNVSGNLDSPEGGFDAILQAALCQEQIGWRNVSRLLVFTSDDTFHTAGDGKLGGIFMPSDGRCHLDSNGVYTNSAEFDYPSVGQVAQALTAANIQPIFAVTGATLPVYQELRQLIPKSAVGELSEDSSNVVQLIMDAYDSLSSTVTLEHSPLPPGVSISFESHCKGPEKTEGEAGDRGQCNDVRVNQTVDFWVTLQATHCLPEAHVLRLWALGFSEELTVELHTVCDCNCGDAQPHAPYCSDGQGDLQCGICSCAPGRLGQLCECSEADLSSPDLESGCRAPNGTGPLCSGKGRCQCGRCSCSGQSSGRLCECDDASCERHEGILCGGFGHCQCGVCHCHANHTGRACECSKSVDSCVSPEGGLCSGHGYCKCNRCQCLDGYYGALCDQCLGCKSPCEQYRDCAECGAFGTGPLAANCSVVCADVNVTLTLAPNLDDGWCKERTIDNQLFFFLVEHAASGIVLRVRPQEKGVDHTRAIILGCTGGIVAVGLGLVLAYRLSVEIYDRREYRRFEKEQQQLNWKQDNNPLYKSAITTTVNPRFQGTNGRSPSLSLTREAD
Experiment: Integrin α4β7-MAdCAM mouse cell adhesion assay (TK-1 cells)
Type: cell-based
Settings: for IC50: TK-1 cells, read-out: IC50 in mouse α4β7-containing cell adhesion
Procedure: TK-1 mouse T-cells lymphoma cell lines (ATCC CRL2396) were cultured in RPMI 1640 medium (HyClone SH30027.1) supplemented with 10% FBS (Seradigm) and 1% Penicillin-Streptomycin. A 96-well plate (Costar, 3603) was coated with 100 μl/well of recombinant mouse MAdCAM-1 Fc Chimera (R&D Systems, 993-MC-050) solution at 0.25 μg/ml in coating buffer (50 mM sodium carbonate, pH 9.6). The plate was incubated overnight at 4° C. and washed twice with 150 μl per well wash buffer (0.05% Tween 20 in PBS), blocked with 250 μl per well blocking buffer (1% non-fat dry milk in PBS), and incubated for 2 hours at room temperature. TK-1 cells were resuspended at 10 million cells/ml in PBS containing […] and incubated at 37° C. for 30 min in a 50 ml tube. […] The plate was emptied by inverting and blotting on paper towels and washed manually twice with PBS. 100 μl PBS was then added to each well. The fluorescence was read (Ex495/Em515) using a plate reader (Tecan Infinite 1000). To calculate the dose response, the fluorescence value of control wells not containing cells was subtracted from each test well.

SMILES | IC50 | fold difference in IC50 between mouse α4β7-containing and human α4β7-containing cell adhesion (TK-1 versus RPMI8866, weaker in mouse)
CC(C)C[C@@H]1NC(=O)c2ccc(-c3ccc(N4CCN(C(=O)COCC(=O)N5CCN(c6ccc(-c7ccc8cc7CNC(=O)[C@@H]7CCCN7C(=O)[C@H](C)NC(=O)[C@H]([C@@H](C)O)NC(=O)[C@H](CC(=O)O)NC(=O)[C@H](CC(C)C)NC8=O)cc6)CC5)CC4)cc3)c(c2)CNC(=O)[C@@H]2CCCN2C(=O)[C@H](C)NC(=O)[C@H]([C@@H](C)O)NC(=O)[C@H](CC(=O)O)NC1=O [Compound 17] | ~97 nM | –
CC(C)C[C@@H]1NC(=O)c2ccc(-c3ccc(N4CCN(Cc5cccc(CN6CCN(c7ccc(-c8ccc9cc8CNC(=O)[C@@H]8CCCN8C(=O)[C@H](C)NC(=O)[C@H]([C@@H](C)O)NC(=O)[C@H](CC(=O)O)NC(=O)[C@H](CC(C)C)NC9=O)cc7)CC6)c5)CC4)cc3)c(c2)CNC(=O)[C@@H]2CCCN2C(=O)[C@H](C)NC(=O)[C@H]([C@@H](C)O)NC(=O)[C@H](CC(=O)O)NC1=O [Compound 18] | ~68 nM | –
CC(C)C[C@@H]1NC(=O)c2ccc(-c3ccc(N4CCNCC4)cc3)c(c2)CNC(=O)[C@@H]2CCCN2C(=O)[C@H](C)NC(=O)[C@H]([C@@H](C)O)NC(=O)[C@H](CC(=O)O)NC1=O [Compound 8] (cyclo(P[X1]LDTA)) | – | ~10 fold
